This passage reports Ki results from BindingDB's records for doi:10.1021/jm800318d (Vertex Pharmaceuticals, 2008).

The experiment concerns the target DNA gyrase A/A/B/B tetramer (Escherichia coli (strain K12), UniProt P0AES4+P0AES6). Kind of experiment: DNA Gyrase ATPase Assay.
Molecule `CCNC(=O)Nc1nc2c(-n3cccn3)cc(-c3cccnc3)cc2[nH]1` [3-ethyl-1-[7-(1H-pyrazol-1-yl)-5-(pyridin-3-yl)-1H-1,3-benzodiazol-2-yl]urea] displayed a Ki of less than 4 nM.

Molecule `CCNC(=O)Nc1nc2c(-n3cccn3)cc(-c3cncnc3)cc2[nH]1` [3-ethyl-1-[7-(1H-pyrazol-1-yl)-5-(pyrimidin-5-yl)-1H-1,3-benzodiazol-2-yl]urea] showed a Ki of less than 4 nM.

In turn, `CCNC(=O)Nc1nc2cc(-c3ccn(C)c(=O)c3)cc(-c3ncccc3F)c2[nH]1` [3-ethyl-1-[7-(3-fluoropyridin-2-yl)-5-(1-methyl-2-oxo-1,2-dihydropyridin-4-yl)-1H-1,3-benzodiazol-2-yl]urea] returned a Ki of less than 4 nM.

On to `CCNC(=O)Nc1nc2cc(-c3cccnc3)cc(-c3ncccc3F)c2[nH]1` [3-ethyl-1-[7-(3-fluoropyridin-2-yl)-5-(pyridin-3-yl)-1H-1,3-benzodiazol-2-yl]urea], for which the Ki was less than 4 nM.

The molecule `CCNC(=O)Nc1nc2c(-n3cccn3)cc(-n3cnc(C(=O)NC4CC4)c3)cc2[nH]1` [N-cyclopropyl-1-{2-[(ethylcarbamoyl)amino]-7-(1H-pyrazol-1-yl)-1H-1,3-benzodiazol-5-yl}-1H-imidazole-4-carboxamide] returned a Ki of less than 4 nM.

Regarding `CCNC(=O)Nc1nc2cc(-c3cccnc3)cc(-c3ccccn3)c2[nH]1` [3-ethyl-1-[7-(pyridin-2-yl)-5-(pyridin-3-yl)-1H-1,3-benzodiazol-2-yl]urea], the Ki is less than 4 nM.

Molecule `CCNC(=O)Nc1nc2c(-c3ccccn3)cc(-n3cnc(C(=O)NC4CC4)c3)cc2[nH]1` [N-cyclopropyl-1-{2-[(ethylcarbamoyl)amino]-7-(pyridin-2-yl)-1H-1,3-benzodiazol-5-yl}-1H-imidazole-4-carboxamide] yielded a Ki of less than 4 nM.

For the molecule `CCNC(=O)Nc1nc2cc(-c3cccnc3)cc(C(=O)OC)c2[nH]1` [methyl 2-[(ethylcarbamoyl)amino]-5-(pyridin-3-yl)-1H-1,3-benzodiazole-7-carboxylate], the Ki was less than 4 nM.

For `CCNC(=O)Nc1nc2cc(-n3cnc(C(=O)NC4CC4)c3)c(F)cc2[nH]1` [N-cyclopropyl-1-{2-[(ethylcarbamoyl)amino]-6-fluoro-1H-1,3-benzodiazol-5-yl}-1H-imidazole-4-carboxamide], the Ki was less than 4 nM.
